Data on 1 compound can be found in publication PMC10989010, “A panel of janus kinase inhibitors identified with anti-inflammatory effects protect mice from lethal influenza virus infection” (Antimicrobial Agents and Chemotherapy, 2024).

In one data set the test system is MCP1. Nature of the data set: cells. The data set is classed as cell-based, human. To be noted: Homo sapiens, U-937, 72 h, read-out: IC50 MCP1.
A further data set relates to U937 cells. Nature of the data set: Cytotoxicity assay (CellTiter-Glo). To be noted: U937 cells; CellTiter-Glo; mean of three independent experiments. It counts as cell-based, human. The method, then:
The compound cytotoxicity was determined by CellTiter-Glo Assay (Promega, Madison, WI, USA). After adding 15 µL of CellTiter-Glo reagent to each well, plates were incubated at room temperature for 15 minutes with shaking. The luminescence intensity was determined by a multimode plate reader (Wallac Envision, PerkinElmer, MA, USA).
For orientation: Cellular ATP, detected with luciferase, serves as a proxy for viable cell number.

For data set [1], the system named is influenza virus-specific IgG. The data set can be described thus: Influenza virus-specific IgG in mouse serum (ELISA). It counts as in vivo, BALB/c mice. To be noted: 50 TCID50 PR8, 20 mg/kg twice daily for 5 days from 3 dpi, versus untreated. The method, then:
The PR8 virus was purified and inactivated using β-Propiolactone (CAS: 57–57-8, MCE) at a 1:3,000 (vol/vol) ratio. The inactivated PR8 virus (2 µg in each well) was then coated onto a 96-well ELISA plate (Corning, USA) and left overnight at 4℃. Afterward, the plate was washed three times and blocked with 5% skimmed milk for 1 hour at 37℃. The plate was washed again three times and then incubated with 100 µL of serial diluted sera at 37 ℃ for 2 hours. Next, the plate was washed three times and incubated with 100 µL of 1,000-fold diluted (horseradish peroxidase) HRP-conjugated affinipure goat ant-mouse IgG (H + L; SA00001-1, Proteintech) at 37℃ for 1 hour. After washing the plate four times, 100 µL of TMB (3, 3', 5, 5'-tetramethylbenzidine) substrate was added to each well until the solutions turned blue, and then 50 µL of 2M H2SO4 was added to stop the reaction. Finally, the absorbance was read at OD450 nm using the Varioskan LUX multimode microplate reader (Thermo Scientific, Waltham, MA, USA) ([47]).
Background: ELISA stands for enzyme-linked immunosorbent assay.

The subject of data set [2] is PR8 virus. Nature of the data set: Viral titers in BALF by TCID50 assay using MDCK cells. The data set is classed as in vivo. To be noted: 300 TCID50; 20 mg/kg/d; day 7 p.i.; treated versus untreated mice. As to the method: Madin-Darby canine kidney (MDCK) cells (ATCC CCL-34™) were maintained in Dulbecco’s modified Eagle’s medium (DMEM, Gibco, Carlsbad, CA) supplemented with 10% fetal bovine serum (Gibco), 100 U/mL penicillin, and 100 µg/mL streptomycin. Human monocyte cell line U937 (CRL-1593.2) was cultured in RPMI 1640 medium supplemented with 10% fetal bovine serum (Gibco), 100 U/mL penicillin, and 100 µg/mL streptomycin. All these cells were maintained at 37℃ in a 5% CO2 incubator. […] The viral titers were measured using 50% tissue culture infective dose (TCID50) assay in MDCK cells. The 10-day-old embryonated chicken eggs were obtained from Guangdong Wens Dahuanong Biotechnology Co., Ltd (Guangdong, China). Six-week-old BALB/c mice were purchased from Guangdong Medical Laboratory Animal Center (GDMLAC, Guangdong, China) and housed under specific pathogen-free conditions.

The next data set has as its system IP-10. The data set can be described thus: cells. It counts as cell-based, human. The following applies: Homo sapiens, U-937, 72 h, read-out: IC50 IP-10.
Data set [3] deals with TNF-α, RANTES, IP-10, IL-10, MIP-1α, IL-8, MCP-1, and IL-6. Nature of the data set: ELISA of pro-inflammatory cytokines and chemokines in BALF of infected mice. The data set is classed as in vivo. The following applies: 300 TCID50; 20 mg/kg/d; day 7 p.i.; versus placebo. As to the method: Mouse IL-10 (Cat. No. 431414), IL-6 (Cat. No. 431304), and TNF-α (Cat. No. 430901) ELISA kits were obtained from BioLegend (San Diego, USA). Mouse IL-8 (CME0008), MCP-1 (CME0046), and IP-10 (CME0051) ELISA kits were purchased from 4A Biotech (Beijing, China). Mouse CCL3/MIP-1α (EK261/2-96) ELISA kit was bought from Multi Sciences (Hangzhou, China). Mouse CCL5/RANTES (BSEM-048–96T) ELISA kit was obtained from Biosharp (Hefei, China). The ELISA was conducted by following the manufacturer’s instructions.

In data set [4] the test system is PR8 virus. Nature of the data set: Neutralization assay of mouse sera. The data set is classed as in vivo, BALB/c mice. To be noted: for neutralizing antibody titer: 50 TCID50 PR8, 20 mg/kg. As to the method: The neutralization assay was performed to determine the neutralizing titers of sera obtained from mice infected with influenza virus. The procedure involved diluting the sera and subsequently heat-inactivating it at 56℃ for 30 minutes, followed by its combination with 100 TCID50 PR8 virus and incubation at 37℃ for 1 hour. The mixture was added to pre-seeded MDCK cells and incubated at 37℃ for 1 hour. Subsequently, the medium was replaced with fresh DMEM and further cultured at 37℃ for 24 hours. Virus production in the supernatant was quantified by assessing virus neuraminidase activity on a black opaque 96-well plate (PerkinElmer, 6005270) using a substrate of 20 µM 2'-(4-methylumbelliferyl)-α-D-N-acetylneuraminic acid (MUNANA, Sigma, M8639) dissolved in MES solution [33 mmol/L 2-(N-morpholino) ethanesulfonic acid and 4 mmol/L CaCl2, pH = 6.5]. The reaction mixture was then incubated at 37℃ for an additional period of 2 hours. The reaction was terminated by the addition of a stop solution (0.14 mol/L NaOH in 83% ethanol). Fluorescence intensity was measured using multimode plate readers (Varioskan Lux, Thermoscientific, USA) with an excitation wavelength of 355 nm and an emission wavelength of 485 nm. The relative virus production was determined based on the fluorescence intensity, which correlated to the cleavage of MUNANA by viral neuraminidase. The serum neutralization titer, representing the dilution fold of serum required to achieve 50% virus neutralization, was determined using Graphpad software ([47]).

Another data set concerns IL-8. Nature of the data set: U937 cell-based anti-inflammatory assay for influenza virus infection, IL-8 production (AlphaLISA). To be noted: Homo sapiens, U-937, 72 h, read-out: IC50 IL-8. Set-up: species or system human. The method, then:
U937 cells were seeded in a 96-well culture plate at a density of 1.5 × 10^5 cells per well and incubated for 24 hours prior to virus infection. Subsequently, the cells in each well were infected with the PR8 virus at a multiplicity of infection of 0.05 and treated with serially diluted drugs or left untreated as a control. The drugs were serially diluted threefold, starting from an initial concentration of 200 µM down to 0.01 µM. […] Following this incubation, the supernatants were collected and subjected to AlphaLISA analysis to determine IL-8, IP-10, and MCP1 protein levels.
The AlphaLISA detection kits employed in this study were IL-8 (PerkinElmer AL224), IP-10 (PerkinElmer AL259), and MCP1 (PerkinElmer, AL244). U937 cell culture supernatants were measured for IL-8, IP-10, and MCP-1 protein levels using AlphaLISA assay as per the manufacturer’s recommendations. The ELISA and AlphaLISA plates were read using the Varioskan LUX multimode microplate reader (Thermo Scientiﬁc, Waltham, MA, USA).

Structures can show the parent of a compound that is named as a salt.

With `CNS(=O)(=O)C[C@H]1CC[C@H](N(C)c2ncnc3[nH]ccc23)CC1` [Oclacitinib maleate], the IC50 with MCP1 was determined as 190 nM; in the data set on IP-10, 180 nM; with IL-8 it was 50 nM. In the data set on U937 cells, this compound had a CC50 of 50000 nM. In addition, the “serum influenza virus-specific IgG production” value in data set [1] (7 dpi) is on record as “significantly suppressed”; in data set [1] (14 and 21 dpi), “slight suppression”. Also, in the data set with PR8 virus [2], the “viral titers in the BALF” value is recorded as “no significant differences”. Besides, the “production of all eight cytokines and chemokines (TNF-α, RANTES, IP-10, IL-10, MIP-1α, IL-8, MCP-1, IL-6) in BALF” value in data set [3] was “significantly reduced”. Also, the “change in neutralization antibody titers compared to untreated mice” value with PR8 virus [4] (14 dpi) is “slight decrease”; with PR8 virus [4] (21 dpi) it was “no difference”. For the same compound, the results for the neutralizing antibody titer with PR8 virus [4] (7 dpi), with PR8 virus [4] (14 dpi) and in the data set on PR8 virus [4] (21 dpi) were 177, 690 and 1,087, respectively.

By IC50 is commonly meant the point on the concentration scale where inhibition reaches its midpoint. Usually CC50 stands for the concentration that lowers cell viability or growth by half. A lower CC50 goes with greater toxicity to the cells.
